Measured values taken from patent US7507739B2, “6-[(substituted)phenyl]triazolopyrimidines as anticancer agents” (Wyeth, priority 2003, dated 2009).
Read-outs that look alike come from different tables or passages of the source.

Assays:
COLO 205 cells = assay: MTS cytotoxicity test with COLO 205 cells; type: cell-based, human; conditions: 3 days
Summary of the method: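 COLO 205 human colon carcinoma cells, 1000 per well, exposed 3 days at 37° C to nine 2-fold dilutions, typical final top concentration 5 μM. MTS absorbance normalized to time-0 plate; IC50 is concentration giving colour yield midway between untreated and fully killed controls.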

HL-60/ADR cells = assay: MTS cytotoxicity test with HL-60/ADR cells (MRP1); type: cell-based, human; conditions: for IC50: Homo sapiens, HL60/ADR, read-out: IC50 HL-60/ADR; for Ratio: IC50 on HL-60/ADR cells/IC50 on HL-60 cells
From the text: (§1) Human cancer cell lines, unless otherwise noted, are obtained from the American Type Culture Collection (Rockville, Md.). The following drug-sensitive parental cell lines, and their derived drug-resistant counterparts, are obtained from the originators as listed: (a) S1 (parental line from a subclone of human colon carcinoma line LS174T) and derived S1-M1-3.2 (herein called S1-M1) which expresses the MXR drug transporter protein, are provided by Dr. L. Greenberger, Wyeth Research (Rabindran, S. K., He, H., Singh, M., Brown, E., Collins, K. I., Annable, T., and Greenberger, L. M. Reversal of a novel multidrug resistance mechanism in human colon carcinoma cells by fumitremorgin C. Cancer Res., 58:5850-5858,1998); (b) parental HL-60 human promyelocytic leukemia line and derived HL-60/ADR, which expresses the MRP1 drug transporter protein, are provided by Dr. M. Center, University of Kansas (McGrath, T., and Center, M. S. Adriamycin resistance in HL60 cells in the absence of detectable P-glycoprotein. Biochem. Biophys. […] J. Biol. Chem., 261: 7762-7770,1986) via Dr. L. Greenberger, Wyeth Research.
(§2) The assay, which is sold in kit form by Promega (Madison, Wis.; CellTiter 96 AQueous Non-Radioactive Cell Proliferation Assay), is based on the conversion by viable cells, but not by dead cells, of the tetrazolium salt, MTS (3-(4,5-dimethylthiazol-2-yl)-5-(3-carboxymethoxyphenyl)-2-(4-sulphophenyl)-2H-tetrazolium, inner salt), into a water-soluble colored formazan which is detected by spectrophotometry. Compounds are tested at nine concentrations, in order to determine IC50 values. For the test procedure, cells are harvested by trypsinization (or, in the case of non-adherent cells, by simple resuspension), washed, counted and distributed to wells of 96-well flat-bottom microtiter plates at 1000 cells per well in 200 μL of medium. In addition, one row of wells on a separate plate received cells as above (“time 0” plate). All plates are incubated at 37° in humidified 5% CO2 in air for about 24 hr.
(§3) On day 2, compounds for test are diluted and added to wells. Compounds are dissolved in DMSO at 10 mg/mL. For each compound, nine serial 2-fold dilutions are prepared in DMSO. Ten μL of each dilution in DMSO is transferred to 100 μL of medium, mixed well, and then 5 μL of this dilution is transferred in quadruplicate to wells containing cells. […] Plates are returned to the incubator for three days. At the time of drug addition to the experimental plates, the MTS assay is run on the “time 0” plate. This produced the “time 0 MTS value” which is related to the number of viable cells per well at the time of drug addition.
(§4) After three days of culture with test compounds (day 5 overall), the MTS assay is done on all wells of the experimental plates. The absorbance values of the quadruplicate sample wells are averaged and divided by the average of the “time 0” values. […] The nine values for each compound are plotted against concentration, and the concentration that produced a relative color yield half way between the maximum and minimum is taken as the IC50 value.
(§5) HL-60/ADR cells overexpress the multidrug resistance protein MRP1 which mediates resistance to some chemotherapeutics (Gottesman, M. M., Fojo, T., and Bates, S. E. Multidrug resistance in cancer: role of ATP-dependent transporters. Nature Rev. Cancer, 2: 48-58, 2002). The IC50 values of representative examples of this invention, as well as reference compounds, on HL-60/ADR are compared to values on the sensitive parental HL-60 line.

S1 cells = assay: MTS cytotoxicity test with S1 cells; type: cell-based; conditions: Homo sapiens
From the text: as §1, §2, §3, §4
as §5, with “S1-M1” for “HL-60/ADR”, “MXR transporter” for “multidrug resistance protein MRP1”, “Miltidrug” for “Multidrug”, “S1” for “HL-60”

S1-M1 cells = assay: MTS cytotoxicity test with S1-M1 cells (MXR); type: cell-based, human; conditions: for IC50: Homo sapiens, read-out: IC50 S1-M1; for Ratio: IC50 on S1-M1 cells/IC50 on S1 cells
From the text: as §1, §2, §3, §4
as §5, with “S1-M1” for “HL-60/ADR”, “MXR transporter” for “multidrug resistance protein MRP1”, “Miltidrug” for “Multidrug”, “S1” for “HL-60”

## CNCCCOc1cc(F)c(-c2c(Cl)nc3ncnn3c2N[C@@H](C)C(F)(F)F)c(F)c1.Cl [Example 2a, 5-Chloro-6-{2,6-difluoro-4-[3-(methylamino)propoxy]phenyl}-N-[(1S)-2,2,2-trifluoro-1-methylethyl][1,2,4]triazolo[1,5-a]pyrimidin-7-amine hydrogen chloride]
COLO 205 cells
  IC50: 31 nM
HL-60/ADR cells
  IC50: 47 nM
  Ratio: 1.1
S1 cells
  IC50: 70 nM
S1-M1 cells
  IC50: 69 nM
  Ratio: 1.0

## C[C@H](Nc1c(-c2c(F)cc(OCCCO)cc2F)c(Cl)nc2ncnn12)C(F)(F)F [Example 20, 3-[4-(5-Chloro-7-{[(1S)-2,2,2-trifluoro-1-methylethyl]amino}[1,2,4]triazolo[1,5-a]pyrimidin-6-yl)-3,5-difluorophenoxy]propan-1-ol]
COLO 205 cells; Homo sapiens, COLO 205, 72 h
  IC50: 67 nM
HL-60/ADR cells; HL-60/ADR cells, MTS
  IC50: 74 nM
HL-60/ADR cells
  Ratio: 0.48
S1 cells
  IC50: 85 nM
S1-M1 cells; S1-M1 cells, MTS
  IC50: 91 nM
S1-M1 cells
  Ratio: 1.1

## CC[C@]1(O)C[C@H]2CN(CCc3c([nH]c4ccccc34)[C@@](C(=O)OC)(c3cc4c(cc3OC)N(C=O)[C@H]3[C@@](O)(C(=O)OC)[C@H](OC(C)=O)[C@]5(CC)C=CCN6CC[C@]43[C@@H]65)C2)C1 [Vincristine, reference compound]
COLO 205 cells; Homo sapiens, COLO 205, 72 h
  IC50: 2.6 nM
HL-60/ADR cells; HL-60/ADR cells, MTS
  IC50: 20 nM
HL-60/ADR cells
  Ratio: 8.2
S1 cells
  IC50: 5.6 nM
S1-M1 cells; S1-M1 cells, MTS
  IC50: 4.6 nM
S1-M1 cells
  Ratio: 0.82

## CNCCCOc1cc(F)c(-c2c(Cl)nc3ncnn3c2NCC(F)(F)F)c(F)c1.Cl [Example 3a, 5-Chloro-6-{2,6-difluoro-4-[3-(methylamino)propoxy]phenyl}-N-(2,2,2-trifluoroethyl)[1,2,4]triazolo[1,5-a]pyrimidin-7-amine hydrogen chloride Salt]
COLO 205 cells
  IC50: 29 nM
HL-60/ADR cells; HL-60/ADR cells, MTS
  IC50: 21 nM
HL-60/ADR cells
  Ratio: 0.81
S1 cells
  IC50: 61 nM
S1-M1 cells; S1-M1 cells, MTS
  IC50: 71 nM
S1-M1 cells
  Ratio: 1.2

## CC(=O)O[C@H]1C(=O)[C@@]2(C)[C@H]([C@H](OC(=O)c3ccccc3)[C@]3(O)C[C@H](OC(=O)[C@H](O)[C@@H](NC(=O)c4ccccc4)c4ccccc4)C(C)=C1C3(C)C)[C@]1(OC(C)=O)CO[C@@H]1C[C@@H]2O [Paclitaxel, reference compound]
COLO 205 cells; Homo sapiens, COLO 205, 72 h
  IC50: 3.3 nM
HL-60/ADR cells; HL-60/ADR cells, MTS
  IC50: 6.4 nM
HL-60/ADR cells
  Ratio: 1.1
S1 cells
  IC50: 8.1 nM
S1-M1 cells; S1-M1 cells, MTS
  IC50: 4.4 nM
S1-M1 cells
  Ratio: 0.54

## CNCCCOc1cc(F)c(-c2c(Cl)nc3ncnn3c2C2CCCCCC2)c(F)c1.O=C(O)C(F)(F)F [Example 32, 3-[4-(5-Chloro-7-cycloheptyl[1,2,4]triazolo[1,5-a]pyrimidin-6-yl)-3,5-difluorophenoxy]-N-methylpropan-1-amine trifluoroacetic acid salt]
COLO 205 cells; Homo sapiens, COLO 205, 72 h
  IC50: 6.6 nM
HL-60/ADR cells; HL-60/ADR cells, MTS
  IC50: 6.6 nM
HL-60/ADR cells
  Ratio: 0.92
S1 cells
  IC50: 11 nM
S1-M1 cells; S1-M1 cells, MTS
  IC50: 9 nM
S1-M1 cells
  Ratio: 0.80

## OCCCOc1cc(F)c(-c2c(Cl)nc3ncnn3c2C2CCCCCC2)c(F)c1 [Example 30, 3-[4-(5-Chloro-7-cycloheptyl[1,2,4]triazolo[1,5-a]pyrimidin-6-yl)-3,5-difluorophenoxy]propan-1-ol]
COLO 205 cells; Homo sapiens, COLO 205, 72 h
  IC50: 30 nM
HL-60/ADR cells; HL-60/ADR cells, MTS
  IC50: 52 nM
HL-60/ADR cells
  Ratio: 0.94
S1 cells
  IC50: 66 nM
S1-M1 cells; S1-M1 cells, MTS
  IC50: 78 nM
S1-M1 cells
  Ratio: 1.2

## C[C@H](Nc1c(-c2c(F)cc(OCCCN(C)C)cc2F)c(Br)nc2ncnn12)C(F)(F)F [Example 25, 5-Bromo-6-{4-[3-(dimethylamino)propoxy]-2,6-difluorophenyl}-N-[(1S)-2,2,2-trifluoro-1-methylethyl][1,2,4]triazolo[1,5-a]pyrimidin-7-amine]
COLO 205 cells; Homo sapiens, COLO 205, 72 h
  IC50: 96 nM
HL-60/ADR cells; HL-60/ADR cells, MTS
  IC50: 68 nM
HL-60/ADR cells
  Ratio: 0.65
S1 cells
  IC50: 106 nM
S1-M1 cells; S1-M1 cells, MTS
  IC50: 84 nM
S1-M1 cells
  Ratio: 0.80

## CN(C)CCCOc1cc(F)c(-c2c(Cl)nc3ncnn3c2NCC(F)(F)F)c(F)c1.Cl [Example 4a, 5-Chloro-6-{4-[3-(dimethylamino)propoxy]-2,6-difluorophenyl}-N-(2,2,2-trifluoroethyl)[1,2,4]triazolo[1,5-a]pyrimidin-7-amine Hydrogen chloride Salt]
COLO 205 cells; Homo sapiens, COLO 205, 72 h
  IC50: 53 nM
HL-60/ADR cells; HL-60/ADR cells, MTS
  IC50: 34 nM
HL-60/ADR cells
  Ratio: 0.65
S1 cells
  IC50: 72 nM
S1-M1 cells; S1-M1 cells, MTS
  IC50: 73 nM
S1-M1 cells
  Ratio: 1.0

## C[C@H](Nc1c(-c2c(F)cc(OCCCN(C)C)cc2F)c(Cl)nc2ncnn12)C(F)(F)F.Cl [Example 1a, 5-chloro-6-{4-[3-(dimethylamino)propoxy]-2,6-difluorophenyl}-N-[(1S)-2,2,2-trifluoro-1-methylethyl][1,2,4]triazolo[1,5-a]pyrimidin-7-amine hydrogen chloride Salt]
COLO 205 cells; Homo sapiens, COLO 205, 72 h
  IC50: 56 nM
HL-60/ADR cells
  IC50: 63 nM
  Ratio: 0.89
S1 cells
  IC50: 73 nM
S1-M1 cells; S1-M1 cells, MTS
  IC50: 75 nM
S1-M1 cells
  Ratio: 1.0
